Data published in patent US10472347B2, “Aminopyrazine compounds with A2A antagonist properties” (Merck Sharp & Dohme Corp., priority 2014, dated 2019).

Molecular target: T1, human A2a receptor (Homo sapiens, UniProt P29274)
T1 construct: purchased Perkin-Elmer RBHA2AM400UA; host or cells: HEK293 cells (membranes)
Experiment: A2a competition binding assay, Scintillation Proximity technology
Conditions: membranes from HEK293 cells expressing human A2a receptor; Ki by Cheng-Prusoff equation
How it was run: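 SPA competition: 0.5 nM tritiated pyrazolotriazolopyrimidine ligand displaced by compound at 3000 to 0.15 nM, 1 h room temperature, human A2a HEK293 membranes pretreated with adenosine deaminase, PBS/10 mM MgCl2 buffer. CGS15943 1 μM defined non-specific binding; EC50 converted to Ki via Cheng-Prusoff.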

T1 sequence (P29274 whole entry): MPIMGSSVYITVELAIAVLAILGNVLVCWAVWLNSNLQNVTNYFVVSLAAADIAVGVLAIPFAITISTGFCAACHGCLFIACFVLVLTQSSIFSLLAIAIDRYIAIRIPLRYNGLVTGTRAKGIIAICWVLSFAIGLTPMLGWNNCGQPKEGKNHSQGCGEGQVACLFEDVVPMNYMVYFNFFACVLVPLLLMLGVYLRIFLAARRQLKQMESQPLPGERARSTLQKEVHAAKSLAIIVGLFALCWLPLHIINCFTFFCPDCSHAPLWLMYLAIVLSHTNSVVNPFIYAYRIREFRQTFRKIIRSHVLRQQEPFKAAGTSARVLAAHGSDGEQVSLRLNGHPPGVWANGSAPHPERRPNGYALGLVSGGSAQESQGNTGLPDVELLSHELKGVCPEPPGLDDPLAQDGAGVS

SMILES: Cc1nc(C(=O)NCc2nccn2C(C)C)c(N)nc1-c1ncco1 [Ex-87, 3-amino-6-methyl-N-{[1-(1-methylethyl)-1H-imidazol-2-yl]methyl}-5-(1,3-oxazol-2-yl)pyrazine-2-carboxamide]
- Ki: 0.471 nM

SMILES: Cc1ccc(CNC(=O)c2nc(C)c(-c3ncco3)nc2N)nc1-c1ccccn1 [Ex-88, 3-amino-6-methyl-N-[(3-methyl-2,2′-bipyridin-6-yl)methyl]-5-(1,3-oxazol-2-yl)pyrazine-2-carboxamide]
- Ki: 6.16 nM

SMILES: Cc1ccc(C(C)C)nc1CNC(=O)c1nc(C)c(-c2ncco2)nc1N [Ex-89, 3-amino-6-methyl-N-{[3-methyl-6-(1-methylethyl)pyridin-2-yl]methyl}-5-(1,3-oxazol-2-yl)pyrazine-2-carboxamide]
- Ki: 0.746 nM

SMILES: CCOCCc1ccc(C)c(CNC(=O)c2nc(C)c(-c3ncco3)nc2N)n1 [Ex-90, 3-amino-N-{[6-(2-ethoxyethyl)-3-methylpyridin-2-yl]methyl}-6-methyl-5-(1,3-oxazol-2-yl)pyrazine-2-carboxamide]
- Ki: 4.95 nM

SMILES: Cc1nc(C(=O)NCc2cccn(CC(F)F)c2=O)c(N)nc1-c1ncco1 [Ex-91, 3-amino-N-{[1-(2,2-difluoroethyl)-2-oxo-1,2-dihydropyridin-3-yl]methyl}-6-methyl-5-(1,3-oxazol-2-yl)pyrazine-2-carboxamide]
- Ki: 2.93 nM

SMILES: Cc1nc(C(=O)NCc2nc(C(F)(F)F)cn2C)c(N)nc1-c1ncco1 [Ex-92, 3-amino-6-methyl-N-{[1-methyl-4-(trifluoromethyl)-1H-imidazol-2-yl]methyl}-5-(1,3-oxazol-2-yl)pyrazine-2-carboxamide]
- Ki: 11.4 nM

SMILES: Cc1nc(C(=O)NCC2(C#N)CCC2)c(N)nc1-c1ncco1 [Ex-93, 3-amino-N-[(1-cyanocyclobutyl)methyl]-6-methyl-5-(1,3-oxazol-2-yl)pyrazine-2-carboxamide]
- Ki: 4 nM

SMILES: Cc1nc(C(=O)NCc2cccc3cc[nH]c23)c(N)nc1-c1ncco1 [Ex-95, 3-amino-N-(1H-indol-7-ylmethyl)-6-methyl-5-(1,3-oxazol-2-yl)pyrazine-2-carboxamide]
- Ki: 0.276 nM

SMILES: Cc1nc(C(=O)NCc2cnc3ccccn23)c(N)nc1-c1ncco1 [Ex-96, 3-amino-N-(imidazo-[1,2-a]pyridin-3-yl-methyl)-6-methyl-5-(1,3-oxazol-2-yl)-pyrazine-2-carboxamide]
- Ki: 12.8 nM

SMILES: Cc1nc(C(=O)NCc2c(C)nc3ccccn23)c(N)nc1-c1ncco1 [Ex-97, 3-amino-6-methyl-N-[(2-methylimidazo[1,2-a]pyridin-3-yl)methyl]-5-(1,3-oxazol-2-yl)pyrazine-2-carboxamide]
- Ki: 35.2 nM

SMILES: Cc1nc(C(=O)NCc2ccc3c(n2)NCCC3)c(N)nc1-c1ncco1 [Ex-98, 3-amino-6-methyl-5-(1,3-oxazol-2-yl)-N-(5,6,7,8-tetrahydro-1,8-naphthyridin-2-ylmethyl)pyrazine-2-carboxamide]
- Ki: 2.93 nM

SMILES: Cc1nc(C(=O)NCc2ccc[n+]([O-])c2)c(N)nc1-c1ncco1 [Ex-99, 3-amino-6-methyl-5-(1,3-oxazol-2-yl)-N-[(1-oxidopyridin-3-yl)methyl]pyrazine-2-carboxamide]
- Ki: 208 nM

SMILES: Cc1nc(C(=O)NCc2ncn(CC3CC3)c2C)c(N)nc1-c1ncco1 [Ex-100, 3-amino-N-{[1-(cyclopropylmethyl)-5-methyl-1H-imidazol-4-yl]methyl}-6-methyl-5-(1,3-oxazol-2-yl)pyrazine-2-carboxamide]
- Ki: 110 nM

SMILES: Cc1nc(C(=O)N[C@H]2CC[C@@H](C(F)(F)F)CC2)c(N)nc1-c1ncco1 [Ex-101, 3-amino-6-methyl-5-(1,3-oxazol-2-yl)-N-[cis-4-(trifluoromethyl)cyclohexyl] pyrazine-2-carboxamide]
- Ki: 12.9 nM

SMILES: Cc1ccc2nc(CNC(=O)c3nc(C)c(-c4ncco4)nc3N)cn2c1 [Ex-102, 3-amino-6-methyl-N-[(6-methylimidazo[1,2-a]pyridin-2-yl)methyl]-5-(1,3-oxazol-2-yl)pyrazine-2-carboxamide]
- Ki: 11.9 nM

SMILES: Cc1nc(C(=O)NCc2n[nH]c3c2CCC3)c(N)nc1-c1ncco1 [Ex-103, 3-amino-6-methyl-5-(1,3-oxazol-2-yl)-N-(1,4,5,6-tetrahydrocyclopenta[c]pyrazol-3-ylmethyl)pyrazine-2-carboxamide]
- Ki: 0.353 nM

SMILES: Cc1nc(C(=O)N(C)C(C)c2ccccn2)c(N)nc1-c1ncco1 (stereo not drawn) [Ex-106, 3-amino-N,6-dimethyl-5-(1,3-oxazol-2-yl)-N-(1-pyridin-2-ylethyl)pyrazine-2-carboxamide]
- Ki: 252 nM

SMILES: Cc1cc(F)cnc1CNC(=O)c1nc(C)c(-c2ncco2)nc1N [Ex-107, 3-amino-N-[(5-fluoro-3-methylpyridin-2-yl)methyl]-6-methyl-5-(1,3-oxazol-2-yl)pyrazine-2-carboxamide]
- Ki: 1.15 nM

SMILES: Cc1nc(C(=O)NCc2nccc(C(F)(F)F)n2)c(N)nc1-c1ncco1 [Ex-108, 3-amino-6-methyl-5-(1,3-oxazol-2-yl)-N-{[4-(trifluoromethyl)pyrimidin-2-yl]methyl}pyrazine-2-carboxamide]
- Ki: 6.58 nM

SMILES: Cc1nc(C(=O)NCc2ncc(F)cn2)c(N)nc1-c1ncco1 [Ex-109, 3-amino-N-[(5-fluoropyrimidin-2-yl)methyl]-6-methyl-5-(1,3-oxazol-2-yl)pyrazine-2-carboxamide]
- Ki: 15 nM

SMILES: COc1ccnc(CNC(=O)c2nc(C)c(-c3ncco3)nc2N)n1 [Ex-110, 3-amino-N-[(4-methoxypyrimidin-2-yl)methyl]-6-methyl-5-(1,3-oxazol-2-yl)pyrazine-2-carboxamide]
- Ki: 1.32 nM

SMILES: Cc1ccn2cc(CNC(=O)c3nc(C)c(-c4ncco4)nc3N)nc2c1 [Ex-111, 3-amino-6-methyl-N-[(7-methylimidazo[1,2-a]pyridin-2-yl)methyl]-5-(1,3-oxazol-2-yl)pyrazine-2-carboxamide]
- Ki: 82.2 nM

SMILES: Cc1nc(C(=O)NCC(=O)c2ccc(F)cc2)c(N)nc1-c1ncco1 [Ex-112, 3-amino-N-[2-(4-fluorophenyl)-2-oxoethyl]-6-methyl-5-(1,3-oxazol-2-yl)pyrazine-2-carboxamide]
- Ki: 14.5 nM

SMILES: Cc1nc(C(=O)NCCCN2CCC(F)(F)C2)c(N)nc1-c1ncco1 [Ex-113, 3-amino-N-[3-(3,3-difluoropyrrolidin-1-yl)propyl]-6-methyl-5-(1,3-oxazol-2-yl)pyrazine-2-carboxamide]
- Ki: 30.2 nM

SMILES: Cc1nc(C(=O)NCc2cn(CC3CC3)cn2)c(N)nc1-c1ncco1 [Ex-114, 3-amino-N-{[1-(cyclopropylmethyl)-1H-imidazol-4-yl]methyl}-6-methyl-5-(1,3-oxazol-2-yl)pyrazine-2-carboxamide]
- Ki: 5.76 nM

SMILES: Cc1nc(C(=O)NC2CCC(F)(F)C2)c(N)nc1-c1ncco1 (stereo not drawn) [Ex-115, 3-amino-N-(3,3-difluorocyclopentyl)-6-methyl-5-(1,3-oxazol-2-yl)pyrazine-2-carboxamide]
- Ki: 8.74 nM

SMILES: Cc1nc(C(=O)NC2CCCN(CC(F)(F)F)C2)c(N)nc1-c1ncco1 (stereo not drawn) [Ex-116, 3-amino-6-methyl-5-(1,3-oxazol-2-yl)-N-[1-(2,2,2-trifluoroethyl)piperidin-3-yl]pyrazine-2-carboxamide]
- Ki: 21.4 nM

SMILES: Cc1nc(C(=O)NC2CCCNC2)c(N)nc1-c1ncco1 (stereo not drawn) [Ex-117, 3-amino-6-methyl-5-(1,3-oxazol-2-yl)-N-piperidin-3-ylpyrazine-2-carboxamide]
- Ki: 104 nM

SMILES: Cc1nc(C(=O)N[C@H]2CC[C@H](C(F)(F)F)CC2)c(N)nc1-c1ncco1 [Ex-118, 3-amino-6-methyl-5-(1,3-oxaozl-2-yl)-N-[trans-4-(trifluoromethyl)cyclohexyl] pyrazine-2-carboxamide]
- Ki: 31.7 nM

SMILES: Cc1nc(C(=O)NCc2cccc(C(C)(C)O)n2)c(N)nc1-c1ncco1 [Ex-119]
- Ki: 6.24 nM

SMILES: Cc1cn(C)c(CNC(=O)c2nc(C)c(-c3ncco3)nc2N)n1 [Ex-120, 3-amino-N-[(1,4-dimethyl-1H-imidazol-2-yl)methyl]-6-methyl-5-(1,3-oxazol-2-yl)pyrazine-2-carboxamide]
- Ki: 5.81 nM

SMILES: Cc1nc(C(=O)NCc2cccc(C(F)(F)F)n2)c(N)nc1-c1ncco1 [Ex-121, 3-amino-6-methyl-5-(1,3-oxazol-2-yl)-N-{[6-(trifluoromethyl)pyridin-2-yl]methyl}pyrazine-2-carboxamide]
- Ki: 3.18 nM

SMILES: COCc1cccc(CNC(=O)c2nc(C)c(-c3ncco3)nc2N)n1 [Ex-122, 3-amino-N-{[6-(methoxymethyl)pyridin-2-yl]methyl}-6-methyl-5-(1,3-oxazol-2-yl)pyrazine-2-carboxamide]
- Ki: 2.91 nM

SMILES: COCCNC(=O)c1nc(C)c(-c2ncco2)nc1N [Ex-123, 3-amino-N-(2-methoxyethyl)-6-methyl-5-(1,3-oxazol-2-yl)pyrazine-2-carboxamide]
- Ki: 17.4 nM

SMILES: COc1ncccc1CNC(=O)c1nc(C)c(-c2ncco2)nc1N [Ex-124, 3-amino-N-[(2-methoxypyridin-3-yl)methyl]-6-methyl-5-(1,3-oxazol-2-yl)pyrazine-2-carboxamide]
- Ki: 1.77 nM

SMILES: Cc1nc(C(=O)N2CCc3cccnc3C2)c(N)nc1-c1ncco1 [Ex-125, 3-(5,8-dihydro-1,7-naphthyridin-7(6H)-ylcarbonyl)-5-methyl-6-(1,3-oxazol-2-yl)pyrazin-2-amine]
- Ki: 18.8 nM

SMILES: Cc1nc(C(=O)NCc2ncc(C(F)(F)F)cn2)c(N)nc1-c1ncco1 [Ex-126, 3-amino-6-methyl-5-(1,3-oxazol-2-yl)-N-{[5-(trifluoromethyl)pyrimidin-2-yl]methyl}pyrazine-2-carboxamide]
- Ki: 83 nM

SMILES: Cc1nc(C(=O)NCc2nccn2C2CCC2)c(N)nc1-c1ncco1 [Ex-127, 3-amino-N-[(1-cyclobutyl-1H-imidazol-2-yl)methyl]-6-methyl-5-(1,3-oxazol-2-yl)pyrazine-2-carboxamide]
- Ki: 0.279 nM

SMILES: Cc1nc(C(=O)NCC2CC2)c(N)nc1-c1ncco1 [Ex-128, 3-amino-N-(cyclopropylmethyl)-6-methyl-5-(1,3,-oxazol-2-yl)pyrazine-2-carboxamide]
- Ki: 12.5 nM
